Assay results taken from article PMC2566978, “Inversion of allosteric effect of arginine on N-acetylglutamate synthase, a molecular marker for evolution of tetrapods” (BMC Biochemistry, 2008).

How the values were obtained:
Experiment in all cases: NAGS activity assay, purified enzyme
Format in all cases: biochemical
[1] = biological target: T1, NAGS from X. tropicalis (Western clawed frog) (Xenopus tropicalis, UniProt F6X3J6); settings: 50 mM glutamate, 12.5 mM AcCoA, room temperature; allosteric activator
T1 sequence (F6X3J6 39-491): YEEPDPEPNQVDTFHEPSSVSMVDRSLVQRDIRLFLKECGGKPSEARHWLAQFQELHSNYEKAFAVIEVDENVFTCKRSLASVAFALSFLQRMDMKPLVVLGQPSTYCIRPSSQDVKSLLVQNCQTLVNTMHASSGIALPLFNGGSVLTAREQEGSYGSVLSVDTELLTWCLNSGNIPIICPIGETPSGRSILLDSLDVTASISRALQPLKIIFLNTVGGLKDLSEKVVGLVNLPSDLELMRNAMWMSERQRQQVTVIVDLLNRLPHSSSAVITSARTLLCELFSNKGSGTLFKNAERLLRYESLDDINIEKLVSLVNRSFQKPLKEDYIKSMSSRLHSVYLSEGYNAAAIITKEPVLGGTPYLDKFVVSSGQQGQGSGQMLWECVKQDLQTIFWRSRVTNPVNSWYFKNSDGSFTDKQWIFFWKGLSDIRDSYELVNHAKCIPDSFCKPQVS

[2] = biological target: T2, NAGS from X. laevis (African clawed frog) (Xenopus laevis, UniProt A0A8J1M136); settings: 50 mM glutamate, 12.5 mM AcCoA, room temperature; allosteric activator
T2 construct: gene LOC108702180
T2 sequence (A0A8J1M136 31-491): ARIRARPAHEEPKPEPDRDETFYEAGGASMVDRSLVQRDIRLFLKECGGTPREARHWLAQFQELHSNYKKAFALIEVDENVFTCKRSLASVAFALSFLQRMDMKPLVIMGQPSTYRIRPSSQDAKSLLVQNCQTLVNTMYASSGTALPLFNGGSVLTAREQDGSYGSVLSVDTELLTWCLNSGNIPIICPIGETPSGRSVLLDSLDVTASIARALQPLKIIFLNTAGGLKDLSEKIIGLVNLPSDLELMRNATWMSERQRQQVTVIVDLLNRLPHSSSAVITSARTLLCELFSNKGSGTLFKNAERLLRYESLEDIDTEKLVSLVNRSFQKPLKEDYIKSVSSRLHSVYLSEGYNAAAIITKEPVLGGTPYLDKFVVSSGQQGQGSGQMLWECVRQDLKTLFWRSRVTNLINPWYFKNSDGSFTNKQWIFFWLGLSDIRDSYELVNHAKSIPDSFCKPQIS

pufferfish NAGS = biological target: T3, pufferfish NAGS (Takifugu rubripes, UniProt H2T4D9); settings: read-out: % inhibition at 1 mM
T3 sequence (H2T4D9 51-529): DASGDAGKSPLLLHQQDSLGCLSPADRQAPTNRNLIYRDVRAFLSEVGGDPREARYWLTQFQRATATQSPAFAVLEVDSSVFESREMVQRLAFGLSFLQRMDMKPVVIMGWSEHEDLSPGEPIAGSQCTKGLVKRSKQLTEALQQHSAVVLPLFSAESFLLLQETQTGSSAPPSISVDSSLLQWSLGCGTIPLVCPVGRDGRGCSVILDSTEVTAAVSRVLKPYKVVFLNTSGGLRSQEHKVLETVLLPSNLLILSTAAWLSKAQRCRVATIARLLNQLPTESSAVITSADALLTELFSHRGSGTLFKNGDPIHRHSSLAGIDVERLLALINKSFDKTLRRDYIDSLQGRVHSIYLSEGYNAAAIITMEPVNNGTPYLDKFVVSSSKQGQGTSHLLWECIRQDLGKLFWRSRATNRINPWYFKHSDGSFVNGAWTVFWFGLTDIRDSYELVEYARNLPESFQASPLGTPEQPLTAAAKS

zebrafish NAGS = biological target: T4, zebrafish NAGS (Danio rerio, UniProt E7FCP8); settings: read-out: % inhibition at 1 mM
T4 sequence (E7FCP8 40-527): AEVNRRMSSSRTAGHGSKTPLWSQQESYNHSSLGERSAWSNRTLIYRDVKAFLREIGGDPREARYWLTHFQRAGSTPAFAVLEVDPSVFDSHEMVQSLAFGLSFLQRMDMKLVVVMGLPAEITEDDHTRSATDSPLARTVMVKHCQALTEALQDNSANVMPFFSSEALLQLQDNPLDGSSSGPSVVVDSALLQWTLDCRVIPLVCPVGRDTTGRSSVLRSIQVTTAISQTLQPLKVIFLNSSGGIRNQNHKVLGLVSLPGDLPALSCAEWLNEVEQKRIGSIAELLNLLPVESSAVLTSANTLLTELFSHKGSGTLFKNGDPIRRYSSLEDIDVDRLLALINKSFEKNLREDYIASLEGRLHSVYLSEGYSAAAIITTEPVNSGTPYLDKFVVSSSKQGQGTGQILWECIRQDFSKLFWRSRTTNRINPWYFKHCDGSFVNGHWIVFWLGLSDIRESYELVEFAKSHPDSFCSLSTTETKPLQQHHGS

% activation at 1 mM [1]: 38%
% activation at 1 mM [2]: 20%
inhibition at 1000 µM (pufferfish NAGS): ~20%
inhibition at 1000 µM (zebrafish NAGS): ~50%
Structure (SMILES): N=C(N)NCCC[C@H](N)C(=O)O [L-arginine]
